Data taken from patent publication US8084003B2, “Ozone detecting device” (Nippon Telegraph and Telephone Corporation, priority 2006, dated 2011).
Like-named read-outs stand apart in the source and are kept apart here. Each block holds one compound with its values, some of them ahead of it.

Tests used:
[1] = Deposition of the ultraviolet absorber as powder on the surface of the detecting device; type: physicochemical; conditions: absorber solution in 50 ml acetone or water, device manufactured and dried
[2] = Ultraviolet exposure test with Artificial Sunlight XC-100AF (no UV filter), reflected-light absorbance at about 618 nm; type: physicochemical; conditions: dye used instead of indigo carmine, with ultraviolet absorber
Procedure: An ultraviolet exposure test (experiment) in which the ozone detecting devices A to G described above are irradiated with ultraviolet light is conducted. In this test, the influence of ultraviolet light was evaluated by using Artificial Sunlight XC-100AF available from SERIC with no UV filter attached. The incident angle of illuminating light to each of ozone detecting devices A to G was set at 20°, the distance from the lower end of the artificial sunlight to each of ozone detecting devices A to G was set at 110 cm, and each of ozone detecting devices A to G was set in a central portion where the intensity of the illuminating light is highest.
Each of ozone detecting devices A to G described above was irradiated with ultraviolet light minute by minute for 1 to 5 min, and the reflected light from the ozone detecting device was measured with a spectrophotometer whenever the device was irradiated. The influence of ultraviolet light was evaluated by using the change in absorbance at a wavelength of about 618 nm as an index.

[3] = Ultraviolet absorbing ability dissolved in a solvent (spectrum of transmitted light); type: physicochemical
Procedure: For example, when equal amounts of 2-hydroxy-4-methoxybenzophenone-5-sulfonic acid trihydrate and 4-dodecyloxy-2-hydroxybenzophenone are added, the ultraviolet absorbing ability of 4-dodecyloxy-2-hydroxybenzophenone is 1.25 times that of 2-hydroxy-4-methoxybenzophenone-5-sulfonic acid trihydrate on the average in a wavelength region of 300 to 400 nm.
Although the addition amount of 2-hydroxy-4-methoxybenzophenone-5-sulfonic acid trihydrate is 0.8 g and that of 4-dodecyloxy-2-hydroxybenzophenone is 0.5 g, i.e., there is a difference between the addition amounts, it is impossible to explain why the large difference is produced between the changes in absorbance by ultraviolet radiation when they are applied to ozone detecting devices. Note that the ultraviolet absorbing ability of an ultraviolet absorber is proportional to the addition amount. When dissolved in a solvent, therefore, the absorbing ability of 0.8 g of 2-hydroxy-4-methoxybenzophenone-5-sulfonic acid trihydrate is about 1.3 times that of 0.5 g of 4-dodecyloxy-2-hydroxybenzophenone.

[4] = other water-soluble ultraviolet absorbers, temperature not given; cited from earlier work
[5] = 25° C.

SMILES: CCC(C)(C)c1cc(-n2nc3ccccc3n2)c(O)c(C(C)(C)CC)c1 [2-(3,5-di-t-pentyl-2-hydroxyphenyl)-2H-benzotriazole]
deposition in the form of powder on the surface of the device [1]: deposits in the form of powder

SMILES: O=C(/C=C/c1ccccc1)c1ccccc1 [chalcone]
resistance to ultraviolet light with other dyes [2]: possible to increase the resistance to ultraviolet light

SMILES: CC(C)(C)c1ccc(O)c(-n2nc3ccccc3n2)c1 [2-(2-hydroxy-5-t-butylphenyl)-2H-benzotriazole]
deposition in the form of powder on the surface of the device [1]: deposits in the form of powder

ultraviolet absorbing ability relative to 2-hydroxy-4-methoxybenzophenone-5-sulfonic acid trihydrate ([3]; equal amounts added, average in wavelength region 300 to 400 nm): 1.25 times
deposition in the form of powder on the surface of the device [1]: deposits in the form of powder
SMILES: CCCCCCCCCCCCOc1ccc(C(=O)c2ccccc2)c(O)c1 [4-dodecyloxy-2-hydroxybenzophenone, reference compound]

SMILES: O=C(Oc1ccccc1)c1ccccc1O [phenyl salicylate]
water solubility [4]: 0.05 wt %

SMILES: O=C1c2ccccc2C(=O)c2c1ccc(O)c2O [alizarin]
resistance to ultraviolet light with other dyes [2]: possible to increase the resistance to ultraviolet light

SMILES: O=S(=O)([O-])c1ccc(O)c(N=Nc2c(O)ccc3ccccc23)c1.[Na+] [Acid Alizarin Violet N]
resistance to ultraviolet light with other dyes [2]: possible to increase the resistance to ultraviolet light

SMILES: COc1cc(O)c(C(=O)c2ccccc2)cc1S(=O)(=O)O.O.O.O [2-hydroxy-4-methoxybenzophenone-5-sulfonic acid trihydrate]
absorbing ability of 0.8 g relative to 0.5 g of 4-dodecyloxy-2-hydroxybenzophenone ([3]; dissolved in a solvent, scaled by addition amount): about 1.3 times
deposition in the form of powder on the surface of the device [1]: none of these ultraviolet absorbers deposited in the form of powder
water solubility [5]: 25 wt %

SMILES: Nc1ccc(C(=O)O)cc1 [p-aminobenzoic acid]
water solubility [4]: 0.4 wt %

SMILES: COc1cc(O)c(C(=O)c2ccccc2)cc1S(=O)(=O)[O-].[Na+] [2-hydroxy-4-methoxybenzophenone-5-sodium sulfonate]
deposition in the form of powder on the surface of the device [1]: none of these ultraviolet absorbers deposited in the form of powder
water solubility [5]: more than 2.5 wt %
